From patent US20240409517A1, “ORGANIC COMPOUNDS” (GIVAUDAN SA, priority 2021, published 2024) come the findings set out here.

Each structure is given as a SMILES string.

What all share (format): in vivo
The test system of experiment [1] is sensory panel. As to the kind of experiment: Taste in water by a sensory panel.
Experiment [2] concerns sensory panel. As to the kind of experiment: Salt enhancement in 0.5% NaCl aqueous solution, sensory panel. The settings on record: 0.5% NaCl aq. solution with 50 ppm compound, compared with 0.5% NaCl alone. The text has this: The solutions were tasted by a sensory panel. Solution A was describes as “salty”.
Aqueous solutions comprising 0.5% NaCl and 50 ppm of the compounds of example 2-21, respectively, have been prepared and tasted by a sensory panel in comparison with an aqueous solution comprising 0.5% NaCl.
Aqueous solutions comprising 0.5% NaCl and 50 ppm of the compounds of example 38-58, respectively, have been prepared and tasted by a sensory panel in comparison with an aqueous solution comprising 0.5% NaCl.

For experiment [3], the system named is sensory panel. In words: Salt enhancement in 0.3% NaCl solution at different concentrations, sensory panel.
In experiment [4] the test system is sensory panel. In words: Umami enhancement in savoury model solution (NaCl, MSG, Ribotides), sensory panel. To be noted: 0.5% NaCl, 0.03% MSG, 0.007% Ribotides with 50 ppm compound, compared with solution A without compound. The text has this: The solutions were tasted by a sensory panel. Solution A is a model solution for savoury taste, containing MSG (monosodium glutamate) and Ribotides (IMP/GMP, 50/50 mixture) as savoury taste enhancer.
Two aqueous solutions have been prepared: • A) 0.5% NaCl, 0.03% MSG, 0.007% Ribotides, and • B) 0.5% NaCl, 0.03% MSG, 0.007% Ribotides and 50 ppm of the compound of example 38-58, respectively.

The subject of experiment [5] is sensory panel. As to the kind of experiment: Bitter masking in 0.3% KCl solution, sensory panel. The settings on record: 0.3% KCl with 50 ppm compound, compared with 0.3% KCl alone. The text has this:
(§1) The solutions were tasted by a sensory panel.

The subject of experiment [6] is sensory panel. As to the kind of experiment: Effect on model broth base, sensory panel. To be noted: model broth base with 0.3% NaCl, 50 ppm compound.
From the text: A model broth base, comprising 0.3% of NaCl was compared with a sample further comprising 50 ppm of the compound of example 1.
as §1

Experiment [7] deals with sensory panel. As to the kind of experiment: Effect on cheese sauce, sensory panel. The settings on record: 50 ppm compound. From the text: The effect of the compound of example 1 on cheese sauce was explored. Therefore, a cheese sauce has been compared by a sensory panel with a sample of the sauce further comprising 50 ppm of the compound of example 1.
Experiment [8] deals with sensory panel. As to the kind of experiment: Effect on potato chips, sensory panel. To be noted: potato chips with 1.5% salt, 70 ppm compound. From the text: Potato chips with 1.5% salt have been tasted by a sensory panel with and without additional compound of example 1.
The subject of experiment [9] is sensory panel. As to the kind of experiment: Effect on mayonnaise, sensory panel. The settings on record: commercially available mayonnaise, 70 ppm compound. From the text:
Samples of commercially available mayonnaise with and without addition of the compound of example 1 have been compared by a sensory panel.

The subject of experiment [10] is sensory panel. In words: Effect on corn curls with cheese flavor, sensory panel. To be noted: 70 ppm compound. The text has this:
Corn curls with cheese flavor with and without addition of the compound of example 1 have been compared by a sensory panel.

Experiment [11] has as its system sensory panel. As to the kind of experiment: Effect on vegan cheese, sensory panel. To be noted: vegan cheese with 0.2% cheese parmesan natural flavor, 70 ppm compound. The text has this:
Samples of vegan cheese comprising 0.2% cheese parmesan natural flavor have been compared with and without the compound of example 1 by a sensory panel.

Experiment [12] deals with sensory panel. As to the kind of experiment: Effect on soy based vegan burger, sensory panel. To be noted: 70 ppm compound. The text has this: Soy based vegan burgers with and without the compound of example 1 have been tasted by a sensory panel.
For experiment [13], the system named is sensory panel. In words: Effect on processed meat, sensory panel. To be noted: 70 ppm compound. The text has this: Samples of processed meat with full salt flavor and sodium reduced flavor have been tasted by a sensory panel with and without the compound of example 1.
Sample 1 was comprising a full salt flavor base.
Sample 2 was comprising a full salt flavor base and 70 ppm of the compound of example 1.
Sample 3 was comprising a salt reduced (33.3%) flavor base and a saltiness flavor modulator.comprising KCl.
Sample 4 was comprising a salt reduced (33.3%) flavor base, a saltiness flavor modulator.comprising KCl, and 70 ppm of the compound of example 1.

With `O=C(/C=C/c1c[nH]cn1)NCCc1c[nH]cn1` [Example 1, (2E)-3-(1H-imidazol-4-yl)-N-[2-(1H-imidazol-4-yl)ethyl]prop-2-enamide], the “taste effect in water” value in the experiment on sensory panel [1] (50 ppm or higher, noticeable up to 1000 ppm) is “slight effect of mouth drying”; in the experiment with sensory panel [1] (up to 40 ppm), “no effect was noticed”. Moreover, the “taste as such in water” value in the experiment on sensory panel [1] (up to 1000 ppm) is given as “no taste as such was perceived, in particular no saltiness”. In addition, the “salty taste versus 0.5% NaCl solution” value in the experiment on sensory panel [2] is listed as “more salty with a mineralic note”. The “upper level at which the salt enhancing effect was perceived” value in the experiment on sensory panel [3] was “up to 200 ppm”. Also, the “salt enhancement in 0.3% NaCl solution” value in the experiment with sensory panel [3] (1 ppm or higher) is “a salt enhancing effect, providing a more lingering, mineralic and fuller salt taste”; in the experiment with sensory panel [3] (below 1 ppm) it was “No salt enhancement was perceived”. Also, in the experiment with sensory panel [4], the “saltiness and umami versus savoury model solution” value was “strong boost of saltiness and umami”. Moreover, the “bitter and salty taste versus 0.3% KCl solution” value in the experiment on sensory panel [5] is “less bitter and more salty and mineral”. Further, the “acidity of the broth base” value in the experiment on sensory panel [6] is given as “The sharp acidity of the broth base was reduced”. The “taste versus model broth base” value in the experiment with sensory panel [6] is “more mineral and salty”. Further, in the experiment with sensory panel [7], the “taste versus plain cheese sauce” value was “more mineral and salty, with a mineralic linger, and having a natural aged cheese character”. Also, in the experiment on sensory panel [8], the “taste versus potato chips without compound” value is “a higher salty impact and a lingering effect”. Further, the “taste versus pure mayonnaise” value in the experiment on sensory panel [9] is “instant tingly salty with a mineral linger and enhanced acidity”. In addition, in the experiment on sensory panel [10], the “taste versus corn curls without compound” value is “more salty, lingering and mineralic”. The “taste versus vegan cheese without compound” value with sensory panel [11] was “more salty and mineral, and the overall taste is lifted”. In addition, the “taste versus vegan burger without compound” value in the experiment with sensory panel [12] was “more salty, having a mineral linger, contributing well to the perception of a burger”. For the same compound, the “taste of processed meat, sample 2 versus sample 1” value with sensory panel [13] (full salt flavor base) is “more salty and mineral”. Moreover, the “taste of processed meat, sample 4 versus sample 1” value in the experiment on sensory panel [13] (salt reduced (33.3%) flavor base with saltiness flavor modulator comprising KCl) is “improved salt-peak, increased salinity, prolonged saltiness, significantly reduced bitterness and astringency, and increased salivation”.
